Assay results published in patent US10785979B2, “Substituted ketoxime benzoylamides” (Bayer CropScience Aktiengesellschaft, priority 2015, dated 2020).

Assays:
different harmful plants [1] = test: Pre-emergence comparative tests versus known compounds from WO 2013/064459 A1 (D1); type: in vivo; conditions: visual scoring after 3 weeks; for Herbicidal efficacy against AVEFA: Avena fatua; for Herbicidal efficacy against CYPES: Cyperus esculentus; for Herbicidal efficacy against VIOTR: Viola tricolor; for Herbicidal efficacy against STEME: Stellaria media; for Herbicidal efficacy against ECHCG: Echinochloa crus galli; for Herbicidal efficacy against POLCO: Polygonum convolvulus
Excerpt: Seeds of monocotyledonous and dicotyledonous weed plants and crop plants are laid out in wood-fiber pots in sandy loam and covered with soil. The compounds of the invention, formulated in the form of wettable powders (WP) or as emulsion concentrates (EC), are then applied to the surface of the covering soil in the form of an aqueous suspension or emulsion at a water application rate equating to 600 to 800 I/ha, with addition of 0.2% wetting agent. After the treatment, the pots are placed in a greenhouse and kept under good growth conditions for the trial plants. The damage to the test plants is scored visually after a test period of 3 weeks by comparison with untreated controls (herbicidal activity in percent (%): 100% activity=the plants have died, 0% activity=like control plants). In this case, for example, compound Nos. 1-15, 1-71, 1-74, 2-15, 2-19, 2-67, 2-71, 2-74, 2-136, 3-15, 3-19, 4-74, 5-15, 5-67, 5-71, 5-74, 6-15, 6-19, 6-67, 6-71, 6-74, 7-15, 7-19, 7-71, 7-74, 8-1, 8-25, 9-5, 9-25, 10-5 and 12-25, at an application rate of 320 g/ha, each show at least 80% efficacy against Abutilon theophrasti and Veronica persica.
(§1) 3. Comparative Experiments
(§2) In addition, comparative tests were conducted under the conditions specified above on different harmful plants between inventive compounds and the most structurally similar known compounds from WO 2013/064459 A1 (D1). The results listed in the tables which follow show the superiority of these compounds of the invention.
(§3) The abbreviations used here mean:
Pre-Emergence Comparative Tests

different harmful plants [2] = test: Post-emergence comparative tests versus known compounds from WO 2013/064459 A1 (D1); type: in vivo; conditions: visual assessment after about 3 weeks; for Herbicidal efficacy against MATIN: Matricaria inodora; for Herbicidal efficacy against VIOTR: Viola tricolor; for Herbicidal efficacy against ALOMY: Alopecurus myosuroides
Experimental: Seeds of monocotyledonous and dicotyledonous weed and crop plants are laid out in sandy loam soil in wood-fiber pots, covered with soil and cultivated in a greenhouse under good growth conditions. 2 to 3 weeks after sowing, the test plants are treated at the one-leaf stage. The compounds of the invention, formulated in the form of wettable powders (WP) or as emulsion concentrates (EC), are then sprayed onto the green parts of the plants in the form of an aqueous suspension or emulsion at a water application rate equating to 600 to 800 I/ha, with addition of 0.2% wetting agent. After the test plants have been left to stand in the greenhouse under optimal growth conditions for about 3 weeks, the action of the preparations is assessed visually in comparison to untreated controls (herbicidal action in percent (%): 100% activity=the plants have died, 0% activity=like control plants). In this case, for example, compound Nos. 1-15, 1-71, 1-74, 2-15, 2-19, 2-67, 2-71, 2-74, 2-136, 3-15, 3-19, 4-19, 4-136, 5-15, 7-15, 7-19, 7-74, 8-1, 8-25, 8-26, 9-5, 9-25, 10-5 and 10-5, at an application rate of 80 g/ha, each show at least 80% efficacy against Abutilon theophrasti and Veronica persica.
as §1, §2, §3
Post-Emergence Comparative Tests

Compound | Herbicidal efficacy against AVEFA (different harmful plants [1]; 320 g a.i./ha) [%] | Herbicidal efficacy against VIOTR (different harmful plants [1]; 320 g a.i./ha) [%] | Herbicidal efficacy against MATIN (different harmful plants [2]; 80 g a.i./ha) [%] | Herbicidal efficacy against VIOTR (different harmful plants [2]; 80 g a.i./ha) [%] | also measured
CCON=C(C)c1c(Cl)ccc(C(=O)Nc2nnnn2C)c1Cl (single isomer, unassigned) [1-5] | 90 | 100 | – | – | Herbicidal efficacy against CYPES (different harmful plants [1]; 320 g a.i./ha): 90%; Herbicidal efficacy against MATIN (different harmful plants [2]; 20 g a.i./ha): 90%; Herbicidal efficacy against VIOTR (different harmful plants [2]; 20 g a.i./ha): 90%
CC(=NOCC1CC1)c1c(Cl)ccc(C(=O)Nc2nnnn2C)c1Cl (single isomer, unassigned) [1-8] | 90 | 100 | 100 | – | Herbicidal efficacy against STEME (different harmful plants [1]; 320 g a.i./ha): 100%; Herbicidal efficacy against ALOMY (different harmful plants [2]; 80 g a.i./ha): 70%
CCn1nnnc1NC(=O)c1ccc(Cl)c(C(C)=NOC)c1Cl (single isomer, unassigned) [2-1] | 100 | 100 | – | 100 | Herbicidal efficacy against CYPES (different harmful plants [1]; 320 g a.i./ha): 100%; Herbicidal efficacy against ALOMY (different harmful plants [2]; 80 g a.i./ha): 60%
CCCn1nnnc1NC(=O)c1ccc(Cl)c(C(C)=NOC)c1Cl (single isomer, unassigned) [3-1] | 80 | 100 | – | – | Herbicidal efficacy against CYPES (different harmful plants [1]; 320 g a.i./ha): 100%; Herbicidal efficacy against MATIN (different harmful plants [2]; 20 g a.i./ha): 80%; Herbicidal efficacy against VIOTR (different harmful plants [2]; 20 g a.i./ha): 100%
CCCn1nnnc1NC(=O)c1ccc(Cl)c(C(C)=NOCC)c1Cl (single isomer, unassigned) [3-5] | 70 | 100 | 90 | 100 | Herbicidal efficacy against STEME (different harmful plants [1]; 320 g a.i./ha): 100%
CCCn1nnnc1NC(=O)c1ccc(Cl)c(C(C)=NOCC2CC2)c1Cl (single isomer, unassigned) [3-8] | – | – | 70 | 80 | –
CCCn1nnnc1NC(=O)c1ccc(S(C)(=O)=O)c(C(C)=NOC)c1Cl (single isomer, unassigned) [3-15] | – | – | – | – | Herbicidal efficacy against MATIN (different harmful plants [2]; 20 g a.i./ha): 90%; Herbicidal efficacy against VIOTR (different harmful plants [2]; 20 g a.i./ha): 90%
CCCn1nnnc1NC(=O)c1ccc(S(C)(=O)=O)c(C(C)=NOCC)c1Cl (single isomer, unassigned) [3-19] | – | – | – | 100 | Herbicidal efficacy against CYPES (different harmful plants [1]; 80 g a.i./ha): 80%; Herbicidal efficacy against ECHCG (different harmful plants [1]; 80 g a.i./ha): 90%; Herbicidal efficacy against VIOTR (different harmful plants [1]; 80 g a.i./ha): 100%; Herbicidal efficacy against ALOMY (different harmful plants [2]; 80 g a.i./ha): 50%
CCON=C(C)c1c(Cl)ccc(C(=O)Nc2ncnn2C)c1Cl (single isomer, unassigned) [4-5] | – | 100 | – | 90 | Herbicidal efficacy against ECHCG (different harmful plants [1]; 320 g a.i./ha): 90%; Herbicidal efficacy against STEME (different harmful plants [1]; 320 g a.i./ha): 80%; Herbicidal efficacy against ALOMY (different harmful plants [2]; 80 g a.i./ha): 30%
CCON=C(C)c1c(S(C)(=O)=O)ccc(C(=O)Nc2ncnn2C)c1Cl (single isomer, unassigned) [4-19] | – | – | – | – | Herbicidal efficacy against ALOMY (different harmful plants [2]; 20 g a.i./ha): 80%; Herbicidal efficacy against VIOTR (different harmful plants [2]; 20 g a.i./ha): 100%
CON=C(C)c1c(Cl)ccc(C(=O)Nc2nonc2C)c1Cl (single isomer, unassigned) [6-1] | – | – | – | – | Herbicidal efficacy against ECHCG (different harmful plants [1]; 320 g a.i./ha): 60%; Herbicidal efficacy against POLCO (different harmful plants [1]; 320 g a.i./ha): 40%; Herbicidal efficacy against STEME (different harmful plants [1]; 320 g a.i./ha): 60%
CON=C(C)c1c(S(C)(=O)=O)ccc(C(=O)Nc2nonc2C)c1Cl (single isomer, unassigned) [6-15] | – | – | 80 | 100 | –
CCON=C(C)c1c(S(C)(=O)=O)ccc(C(=O)Nc2nonc2C)c1Cl (single isomer, unassigned) [6-19] | 30 | 100 | 70 | 100 | Herbicidal efficacy against CYPES (different harmful plants [1]; 320 g a.i./ha): 80%
CCCn1nnnc1NC(=O)c1ccc(S(C)(=O)=O)c(C(C)=NOC)c1Cl (single isomer, unassigned) [10-5] | – | – | 100 | – | Herbicidal efficacy against ALOMY (different harmful plants [2]; 80 g a.i./ha): 60%
CCCn1nnnc1NC(=O)c1ccc(S(C)(=O)=O)c(C(C)=NOCC)c1Cl (single isomer, unassigned) [10-6] | 40 | 100 | – | – | Herbicidal efficacy against POLCO (different harmful plants [1]; 320 g a.i./ha): 60%; Herbicidal efficacy against MATIN (different harmful plants [2]; 20 g a.i./ha): 90%; Herbicidal efficacy against VIOTR (different harmful plants [2]; 20 g a.i./ha): 100%
CON=C(C)c1c(S(C)(=O)=O)ccc(C(=O)Nc2nonc2C)c1Cl (single isomer, unassigned) [13-5] | – | – | 60 | 90 | –
CCON=C(C)c1c(S(C)(=O)=O)ccc(C(=O)Nc2nonc2C)c1Cl (single isomer, unassigned) [13-6] | 60 | 100 | 60 | 100 | Herbicidal efficacy against CYPES (different harmful plants [1]; 320 g a.i./ha): 60%
